Assay results taken from US9730944B2, “Antiviral activity of novel bicyclic heterocycles” (priority 2010, dated 2017).
≈ marks a conversion by molar mass, not a printed value. Like-named read-outs stand apart in the source and are kept apart here.

Tests used:
in vitro [1] = conditions: African green monkey, PV CC50
hRV-89 = test: Rhinovirus type 89 antiviral assay in Hela Rh cells, MTS readout; type: cell-based, Human rhinovirus; conditions: Rhinovirus A, HRV89, HeLa Rh; methodology of example 451; read-out: EC50 (μg/ml) hRV-89
hRV-63 = test: Rhinovirus type 63 antiviral assay in Hela Rh cells, MTS readout; type: cell-based, Human rhinovirus; conditions: Human rhinovirus sp., HRV63, HeLa Rh, methodology of example 451; read-out: EC50 (μg/ml) hRV-63
[2] = Cytotoxicity in RD cells (enterovirus methodology); conditions: human
hRV-15 = test: Rhinovirus type 15 antiviral assay in Hela Rh cells, MTS readout; type: cell-based, Human rhinovirus; conditions: Human rhinovirus sp., HRV15, HeLa Rh, methodology of example 451; read-out: EC50 (μg/ml) hRV-15
in vitro [3] = conditions: human, PV CC50
poliovirus (PV type 1) = test: microbe, parasite or virus in culture; type: cell-based; conditions: Enterovirus C, read-out: PV-1 EC50
hRV-14 = test: Rhinovirus type 14 antiviral assay in Hela Rh cells, MTS readout; type: cell-based, Human rhinovirus; conditions: Rhinovirus B, HRV14, HeLa Rh, methodology of example 451; read-out: EC50 (μg/ml) hRV-14
hRV-2 = test: Rhinovirus type 2 antiviral assay in Hela Rh cells, MTS readout; type: cell-based, Human rhinovirus; conditions: Rhinovirus A, HRV2, HeLa Rh, methodology of example 451; read-out: EC50 (μg/ml) hRV-2
hRV-29 = test: Rhinovirus type 29 antiviral assay in Hela Rh cells, MTS readout; type: cell-based; conditions: Human rhinovirus sp., HRV29, HeLa Rh, methodology of example 451; read-out: EC50 (μg/ml) hRV-29
hRV-70 = test: Rhinovirus type 70 antiviral assay in Hela Rh cells, MTS readout; type: cell-based, Human rhinovirus; conditions: Human rhinovirus sp., HRV70, HeLa Rh, methodology of example 451; read-out: EC50 (μg/ml) hRV-70
hRV-41 = test: Rhinovirus type 41 antiviral assay in Hela Rh cells, MTS readout; type: cell-based, Human rhinovirus; conditions: Human rhinovirus sp., HRV41, HeLa Rh, methodology of example 451; read-out: EC50 (μg/ml) hRV-41
hRV-39 = test: Rhinovirus type 39 antiviral assay in Hela Rh cells, MTS readout; type: cell-based, Human rhinovirus; conditions: Human rhinovirus sp., HRV39, HeLa Rh, methodology of example 451; read-out: EC50 (μg/ml) hRV-39
hRV-72 = test: Rhinovirus type 72 antiviral assay in Hela Rh cells, MTS readout; type: cell-based, Human rhinovirus; conditions: Human rhinovirus sp., HRV72, HeLa Rh, methodology of example 451; read-out: EC50 (μg/ml) hRV-72
hRV-42 = test: Rhinovirus type 42 antiviral assay in Hela Rh cells, MTS readout; type: cell-based, Human rhinovirus; conditions: Human rhinovirus sp., HRV42, HeLa Rh, methodology of example 451; read-out: EC50 (μg/ml) hRV-42
enterovirus (EV71) = test: Enterovirus (EV71) antiviral assay in RD cells; type: cell-based
in vitro [4] = conditions: African green monkey
[5] = system: Enteric Cytopathic Human Orphan virus (ECHO11); test: organism not typed; type: cell-based; conditions: BGM, read-out: EC50 (ECHO virus)
HIV-1 strain IIIB = test: Inhibition of replication of HIV-1 (IIIB strain) in MT-4 cells, MTT assay; type: cell-based; conditions: Human immunodeficiency virus 1, IIIB, MT4, 120 h; MT-4 cells, MTT assay, five days after infection, 50% protection from cytopathic effect; read-out: EC50 (μM) HIV-1 (IIIB)
[6] = Cytostatic/cytotoxic effect in Hela Rh cells (rhinovirus methodology, MTS); conditions: human, CC50 (μg/ml), rhinovirus methodology of example 451
coxsackie virus (CVA9) = test: Coxsackievirus (CVA9) antiviral assay in BGM cells; type: cell-based; conditions: Enterovirus B
in vitro [7] = conditions: human
HIV-2 strain (ROD) = test: Inhibition of replication of HIV-2 (ROD strain) in MT-4 cells, MTT assay; type: cell-based; conditions: Human immunodeficiency virus 2, MT4, 120 h; MT-4 cells, MTT assay, five days after infection, 50% protection from cytopathic effect; read-out: EC50 (μM) HIV-2 (ROD)
hRV-45 = test: Rhinovirus type 45 antiviral assay in Hela Rh cells, MTS readout; type: cell-based, Human rhinovirus; conditions: Human rhinovirus sp., HRV45, HeLa Rh, methodology of example 451; read-out: EC50 (μg/ml) hRV-45
poliovirus (PV type 3) = test: microbe, parasite or virus in culture; type: cell-based; conditions: Enterovirus C, read-out: PV-3 EC50
hRV-85 = test: Rhinovirus type 85 antiviral assay in Hela Rh cells, MTS readout; type: cell-based, Human rhinovirus; conditions: Human rhinovirus sp., HRV85, HeLa Rh, methodology of example 451; read-out: EC50 (μg/ml) hRV-85
poliovirus (PV type 2) = test: microbe, parasite or virus in culture; type: cell-based; conditions: Enterovirus C, read-out: PV-2 EC50
hRV-9 = test: Rhinovirus type 9 antiviral assay in Hela Rh cells, MTS readout; type: cell-based, Human rhinovirus; conditions: Human rhinovirus sp., HRV9, HeLa Rh, methodology of example 451; read-out: EC50 (μg/ml) hRV-9
hRV-59 = test: Rhinovirus type 59 antiviral assay in Hela Rh cells, MTS readout; type: cell-based; conditions: Human rhinovirus sp., HRV59, HeLa Rh; methodology of example 451; read-out: EC50 (μg/ml) hRV-59
[8] = Cytotoxicity reported with the coxsackievirus (CVA9) assay; conditions: African green monkey
hRV-86 = test: Rhinovirus type 86 antiviral assay in Hela Rh cells, MTS readout; type: cell-based, Human rhinovirus; conditions: Human rhinovirus sp., HRV86, HeLa Rh, methodology of example 451; read-out: EC50 (μg/ml) hRV-86

## Nc1nc(N2CCN(C(=O)COc3ccc(Cl)cc3)CC2)c2nc(-c3ccc(F)cc3)sc2n1 [Example 45, 1-(4-(5-amino-2-(4-fluorophenyl)thiazolo[5,4-d]pyrimidin-7-yl)piperazin-1-yl)-2-(4-chlorophenoxy)ethanone]
In vitro [1]
  CC50: > 150 µg/mL
hRV-89
  EC50: 0.021 µg/mL (≈ 0.0421 µM)
hRV-63
  EC50: 0.018 µg/mL (≈ 0.0361 µM)
[2]
  CC50: 27.8 µg/mL (≈ 55.7 µM)
hRV-15
  EC50: 0.017 µg/mL (≈ 0.0341 µM)
In vitro [3]
  CC50: > 50 µg/mL
Poliovirus (PV type 1); HeLa
  EC50: < 0.023 µg/mL
Poliovirus (PV type 1); Vero
  EC50: < 0.023 µg/mL
hRV-14
  EC50: 0.0701 µg/mL (≈ 0.14 µM)
hRV-2
  EC50: 0.0095 µg/mL (≈ 0.019 µM)
hRV-29
  EC50: 0.011 µg/mL (≈ 0.022 µM)
hRV-70
  EC50: 0.0718 µg/mL (≈ 0.144 µM)
hRV-41
  EC50: 0.0129 µg/mL (≈ 0.0259 µM)
hRV-39
  EC50: 0.012 µg/mL (≈ 0.024 µM)
hRV-72
  EC50: 0.0736 µg/mL (≈ 0.148 µM)
hRV-42
  EC50: 0.0142 µg/mL (≈ 0.0285 µM)
Enterovirus (EV71)
  EC50: 0.0695 µg/mL (≈ 0.139 µM)
In vitro [4]
  CC50: 28.7 µg/mL (≈ 57.5 µM)
[5]
  EC50: 0.076 µg/mL (≈ 0.152 µM)
HIV-1 strain IIIB
  EC50: 0.73 µM
[6]
  CC50: 21.7 µg/mL (≈ 43.5 µM)
Coxsackie virus (CVA9)
  EC50: 0.29 µg/mL (≈ 0.581 µM)
In vitro [7]
  CC50: 149000 nM
HIV-2 strain (ROD)
  EC50: 0.45 µM
hRV-45
  EC50: 0.198 µg/mL (≈ 0.397 µM)
Poliovirus (PV type 3); HeLa
  EC50: < 0.023 µg/mL
Poliovirus (PV type 3); Vero
  EC50: < 0.023 µg/mL
hRV-85
  EC50: 0.0295 µg/mL (≈ 0.0591 µM)
Poliovirus (PV type 2); HeLa
  EC50: < 0.023 µg/mL
Poliovirus (PV type 2); Vero
  EC50: < 0.023 µg/mL
hRV-9
  EC50: 0.0082 µg/mL (≈ 0.0164 µM)
hRV-59
  EC50: 0.02 µg/mL (≈ 0.0401 µM)
[8]
  CC50: 25.7 µg/mL (≈ 51.5 µM)
hRV-86
  EC50: 0.047 µg/mL (≈ 0.0942 µM)
